Assay results: US20250188033A1, “INHIBITOR OF REPLICATION PROTEIN A1 OF TRYPANOSOMA BRUCEI AND METHOD OF USE THEREOF” (Research Foundation of the City University of New York, published 2025)
Like-named read-outs stand apart in the source and are kept apart here.

Columns and labels:
HeLa cells = test: ALAMARBLUE cell viability assay of human cells (HeLa); format: cell-based
Protocol: (§1) Human cell lines, HeLa and HEK293 were maintained in Dulbecco's modified MEM (D-MEM, GIBCO) supplemented with 10% fetal bovine serum (GIBCO) at 37° C. with 5% CO2.
(§2) To determine the inhibitory effect of JC-229 on human cells, HeLa and HEK293 cells were suspended in 180 μl D-MEM with 10% FBS and plated at a density of 2×10^4 cells/ml in triplicate. Cells were adhered overnight, and the medium was replaced, and cells were then incubated for 72 hours with increasing concentrations of JC-229 (0.5 μM to 50 μM) and cell viability was determined using the ALAMARBLUE® dye as described above. Percent viability was plotted using GraphPad Prism software. […] The EC50 values were estimated using the concentration of JC-229 that cause 50% reduction of cell viability (inhibitor vs. normalized response, variable slope).

T. brucei cells [1] = test: Cell-cycle analysis by PI staining and flow cytometry; format: cell-based, Trypanosoma brucei; details: 10 μM
Protocol: (§3) Without wishing to be bound to any particular theory, if JC-229 indeed binds and inhibits the functions of TbRPA1, as predicted from the structural model, JC-229-treated trypanosome cells should show similar phenotypes to TbRPA1-depleted cells without affecting TbRPA1 protein levels. Wild-type T. brucei cells was treated with 10 μM JC-229 for 48 hours and the cell-cycle profile and efficiency of DNA synthesis was monitored. TbRPA1, γH2A, VSG3, and Tubulin protein levels were also monitored (FIG. 3A, FIG. 3B, FIG. 3C and FIG. 3D).
About 10 million cells were collected after tetracycline induction or after JC-229 treatment. Cells were fixed with ice-cold 70% ethanol and incubated with 50 μg/ml PI (Sigma-Aldrich) and 200 μg/ml RNase A (Sigma-Aldrich) in 1×PBS (Corning) at 37° C. for 30 min in the dark. Samples were analyzed by flow cytometry (FACSVia, BD Biosciences) and FLOWJO®.

HEK293 cells = test: ALAMARBLUE cell viability assay of human cells (HEK293); format: cell-based
Protocol: as §1, §2

T. brucei cells [2] = test: Immunoblotting of TbRPA1, γH2A and VSG3 protein levels; format: cell-based, Trypanosoma brucei; details: 10 μM; for fold increase in the levels of γH2A: relative to untreated, normalized to tubulin
Protocol: as §3
Cells were harvested at indicated time points and suspended in Laemmli buffer (Bio-Rad) at 0.25 million cells per μl. Denatured proteins from whole cells were separated on a 4-20% gradient SDS-PAGE gel (BioRAD) and transferred to nitrocellulose membrane (GE Healthcare). The membranes were probed with polyclonal antibodies against TbRPA1 (a gift from Bibo Li laboratory) or γH2A (generated by ABclonal for this study), or monoclonal mouse antibodies against VSG3 (Antibody and Bioresource Core facility, MSKCC) or tubulin (Sigma) in 1× PBS with 0.1% Tween 20 and 1% milk (BioRAD) at 4° C. overnight. The membranes were then incubated with secondary antibodies conjugated with Horseradish Peroxidase (HRP) (GE healthcare) for the detection of corresponding proteins using chemiluminescence (Hyglo from Denville Scientific, ChemiDoc Imaging System from BioRAD).

Trypanosoma brucei = test: ALAMARBLUE cell viability / growth assay of T. brucei cells; format: cell-based
Summary of the method: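 Parasites seeded at 1×10^3 cells/ml in triplicate, exposed to compound for 72 h (0.0075% DMSO vehicle). AlamarBlue added for 4-6 h, fluorescence read at 560/590 nm; % viable cells calculated from RFU normalized to DMSO control, EC50 from 0.5-50 μM series.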

[3] = molecular target: T1, TbRPA complex (RPA1/RPA2/RPA3) (Trypanosoma brucei, UniProt Q384B5;Q57ZN9;Q38DK0 Q384B5:1-463,Q57ZN9:1-255,Q38DK0:1-127); test: MST; 10 mM MgCl2, 10 mM NaCl, Tris pH 7.5, 22 C; JC-229 inhibits binding, IC50 24.5 nM; details: tags: 6xHis-thrombin site on RPA1 (pSR8), E. coli; one complex per dT32 stated; label: 5' Cy5
T1 sequence 1: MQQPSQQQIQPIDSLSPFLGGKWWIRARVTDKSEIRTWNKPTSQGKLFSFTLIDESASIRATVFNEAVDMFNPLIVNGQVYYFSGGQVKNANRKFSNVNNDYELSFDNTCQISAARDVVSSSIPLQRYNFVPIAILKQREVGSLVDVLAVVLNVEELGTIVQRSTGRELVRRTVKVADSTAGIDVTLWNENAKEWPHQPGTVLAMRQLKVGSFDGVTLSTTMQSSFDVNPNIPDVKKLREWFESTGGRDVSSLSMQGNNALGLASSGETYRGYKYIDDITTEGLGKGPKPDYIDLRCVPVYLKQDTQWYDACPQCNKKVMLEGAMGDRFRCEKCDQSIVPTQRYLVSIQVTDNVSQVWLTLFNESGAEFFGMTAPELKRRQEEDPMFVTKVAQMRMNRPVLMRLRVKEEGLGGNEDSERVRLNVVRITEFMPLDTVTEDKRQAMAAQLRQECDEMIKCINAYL
T1 sequence 2: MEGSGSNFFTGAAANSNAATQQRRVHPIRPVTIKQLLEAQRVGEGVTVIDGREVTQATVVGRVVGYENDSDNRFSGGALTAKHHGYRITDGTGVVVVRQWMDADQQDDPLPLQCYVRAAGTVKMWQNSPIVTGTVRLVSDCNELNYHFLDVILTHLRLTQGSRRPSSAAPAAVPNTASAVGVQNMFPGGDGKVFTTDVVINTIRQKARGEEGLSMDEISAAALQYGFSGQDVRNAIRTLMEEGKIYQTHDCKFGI
T1 sequence 3: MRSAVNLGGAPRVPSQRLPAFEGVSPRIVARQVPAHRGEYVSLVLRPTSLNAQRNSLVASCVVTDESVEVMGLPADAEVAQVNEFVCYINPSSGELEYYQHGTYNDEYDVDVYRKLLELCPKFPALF
Protocol: FIG. 5C are graphs showing recombinant TbRPA complex was 2-fold serially diluted from 400 nM concentration and these were incubated with 10 nM 5′Cy5-dT₃₂. Binding was analyzed by MST (left). Serial dilutions of JC-229 were pre-incubated with 25 nM TbRPA complex and then with 10 nM 5′Cy5-dT₃₂. Inhibition of binding was analyzed by MST (right).
(§4) MST experiments were performed on Monolith NT.115 instrument with red filter (Nanotemper Technologies) in MST binding buffer (20 mM Tris, pH 7.5, 10 mM NaCl, 10 mM MgCl₂, 2 mM DTT, 10% glycerol and 0.1 mg/ml BSA) using premium-coated capillaries (Nanotemper Technologies). MST experiments were performed with 40% LED power and 40% MST power at 22° C.
(§5) ssDNA-binding assay: The 5′Cy5 labeled-oligo dT32 was purchased from IDT. Increasing concentrations of purified protein (from 0.06 nM to 2,000 nM for DBD-AB proteins; from 0.02 nM to 800 nM for RPA complexes) were incubated with equal volume (10 μl) of 5′Cy5-labeld oligo dT₃₂ (10 nM final concentration) in MST binding buffer for 15 min at room temperature. Samples were then loaded into MST capillaries.

TcRPA1 DBD-AB T105S = TcRPA1 DBD-AB T105S (Trypanosoma cruzi, UniProt Q4DXC9 Q4DXC9:1-256, T105S); test: MST; 10 mM MgCl2, 22 C; JC-229 IC50 159x10^3 nM; details: tags: N-terminal 6xHis, pET28a, E. coli; label: 5' Cy5
TcRPA1 DBD-AB = molecular target: T2, TcRPA1 DBD-AB (Trypanosoma cruzi, UniProt Q4DXC9 Q4DXC9:1-256); test: MST; p171-172 quotes 12.6 nM for the same WT protein; 10 mM MgCl2, 22 C; not inhibited by JC-229; details: tags: N-terminal 6xHis, pET28a (pSR13), E. coli; label: 5' Cy5
T2 sequence: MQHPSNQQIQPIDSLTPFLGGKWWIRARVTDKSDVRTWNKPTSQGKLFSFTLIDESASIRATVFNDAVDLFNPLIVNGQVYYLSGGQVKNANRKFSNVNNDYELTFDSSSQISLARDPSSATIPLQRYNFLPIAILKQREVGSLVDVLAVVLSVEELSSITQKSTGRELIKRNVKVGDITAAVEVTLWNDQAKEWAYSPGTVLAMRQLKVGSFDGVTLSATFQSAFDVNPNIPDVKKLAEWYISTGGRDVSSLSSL
Protocol: as §4, §5

TbRPA1 DBD-AB F64A [4] = molecular target: T3, TbRPA1 DBD-AB F64A (Trypanosoma brucei, UniProt Q384B5 Q384B5:1-257, F64A); test: MST; no ssDNA-binding activity; details: tags: 6xHis, pET28a, E. coli; label: 5' Cy5
TbRPA1 DBD-AB W188A [5] = molecular target: T4, TbRPA1 DBD-AB W188A (Trypanosoma brucei, UniProt Q384B5 Q384B5:1-257, W188A); test: MST; no ssDNA-binding activity; details: tags: 6xHis, pET28a, E. coli; label: 5' Cy5
HsRPA1 DBD-AB = HsRPA1 DBD-AB (Homo sapiens, UniProt P27694 P27694:181-422); test: MST; 10 mM MgCl2, 10 mM NaCl, Tris pH 7.5, 22 C; not inhibited by JC-229; details: tags: 6xHis, pET28a (pSR15), E. coli; label: 5' Cy5
Sequence of HsRPA1 DBD-AB (P27694 181-422, one chain of several): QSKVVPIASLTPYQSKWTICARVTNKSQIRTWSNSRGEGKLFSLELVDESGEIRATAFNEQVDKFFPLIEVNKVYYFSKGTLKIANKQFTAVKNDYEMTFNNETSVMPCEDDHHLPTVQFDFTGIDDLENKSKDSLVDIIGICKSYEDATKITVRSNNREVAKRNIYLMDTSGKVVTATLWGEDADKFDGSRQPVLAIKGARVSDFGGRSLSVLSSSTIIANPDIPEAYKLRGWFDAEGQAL
Protocol: as §4, §5

LmexRPA1 DBD-AB = molecular target: T5, LmexRPA1 DBD-AB (Leishmania mexicana, UniProt E9B001 E9B001:1-258); test: as above; details: tags: N-terminal 6xHis, pET28a (pSR16), E. coli; label: 5' Cy5
T5 sequence: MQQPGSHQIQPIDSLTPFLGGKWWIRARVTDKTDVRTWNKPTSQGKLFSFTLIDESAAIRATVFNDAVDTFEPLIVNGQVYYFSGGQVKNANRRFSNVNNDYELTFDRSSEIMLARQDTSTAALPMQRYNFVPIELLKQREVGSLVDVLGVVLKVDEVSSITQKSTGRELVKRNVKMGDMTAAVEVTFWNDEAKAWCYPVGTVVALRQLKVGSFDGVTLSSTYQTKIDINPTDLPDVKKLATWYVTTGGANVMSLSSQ
Protocol: as §4, §5

TbRPA1 DBD-AB S105T = TbRPA1 DBD-AB S105T (Trypanosoma brucei, UniProt Q384B5 Q384B5:1-257, S105T); test: EMSA; 10 mM MgCl2, RT; not inhibited by JC-229; details: tags: 6xHis, pET28a, E. coli; label: 5' IRDye800
TbRPA1 DBD-AB F64A [6] = molecular target: T3, TbRPA1 DBD-AB F64A; test: EMSA; no ssDNA-binding activity; details: tags: 6xHis, pET28a, E. coli; label: 5' IRDye800
TbRPA1 DBD-AB W188A [7] = molecular target: T4, TbRPA1 DBD-AB W188A; test: EMSA; no ssDNA-binding activity; details: tags: 6xHis, pET28a, E. coli; label: 5' IRDye800

## Cc1ccc(C(=O)Nc2ccc(Cl)c(Cl)c2)cc1S(=O)(=O)Nc1ccc(Cl)c(Cl)c1 [JC-229, N-(3,4-dichlorophenyl)-3-(N-(3,4-dichlorophenyl)sulfamoyl)-4-methylbenzamide]
HeLa cells; 0.5 to 50 μM, 72 hours, estimated, curve did not reach bottom plateau
  EC50: 32100 nM
HeLa cells; at 6.5 μM (EC50 to T. brucei)
  inhibition at 6.5 µM: < 20%
HeLa cells; at 50 μM, the maximum concentration
  inhibition at 50 µM: < 100%
T. brucei cells [1]; 32-hour time point
  sub-G1 population: ~45%
T. brucei cells [1]; by 48 hours
  cells that lost the bulk of their DNA: ~97%
HEK293 cells; HEK293, 0.5 to 50 μM, 72 hours, estimated, curve did not reach bottom plateau
  EC50: 18400 nM
HEK293 cells; HEK293, at 6.5 μM (EC50 to T. brucei)
  inhibition at 6.5 µM: < 20%
HEK293 cells; HEK293, at 50 μM, the maximum concentration
  inhibition at 50 µM: < 100%
T. brucei cells [2]; 16 hours
  fold increase in the levels of γH2A: approximately 5 fold
T. brucei cells [2]; 24 hours
  fold increase in VSG3 protein levels: ~3 fold
  fold increase in the levels of γH2A: ~7 fold
Trypanosoma brucei; Trypanosoma brucei, 72 h, read-out: EC50 (T. brucei viability), T. brucei, 0.5 to 50 μM, 72 hours
  EC50: 6600 nM
Trypanosoma brucei; Trypanosoma brucei, T. brucei, 2 μM, 72 hours, normalized to DMSO control
  inhibition at 2 µM: 24%
Trypanosoma brucei; Trypanosoma brucei, T. brucei, 5 μM, 72 hours, normalized to DMSO control
  inhibition at 5 µM: 76%
Trypanosoma brucei; Trypanosoma brucei, T. brucei, 10 μM, 72 hours, normalized to DMSO control
  inhibition at 10 µM: 100%
Trypanosoma brucei; read-out: EC50 (T. brucei viability), T. brucei, 0.5 to 50 μM, 72 hours
  EC50: 6500 nM

B1: 5'Cy5-dT32 (ssDNA)
DNA: TTTTTTTTTTTTTTTTTTTTTTTTTTTTTTTT
[3]
  Kd: 13.2 nM
TcRPA1 DBD-AB T105S
  Kd: 52.4 nM
TcRPA1 DBD-AB
  Kd: 13.2 nM
TbRPA1 DBD-AB F64A [4]
  binding result: no binding
TbRPA1 DBD-AB W188A [5]
  binding result: no binding
HsRPA1 DBD-AB
  Kd: 48 nM
LmexRPA1 DBD-AB
  Kd: 12.6 nM

B2: 5'IRDye800-dT32 (ssDNA)
DNA: B1 DNA
TbRPA1 DBD-AB S105T
  binding result: binds
TbRPA1 DBD-AB F64A [6]
  binding result: no binding
TbRPA1 DBD-AB W188A [7]
  binding result: no binding
